Measurements reported in patent US20250288584A1, “COMBINATIONS COMPRISING POSITIVE ALLOSTERIC MODULATORS OR ORTHOSTERIC AGONISTS OF METABOTROPIC GLUTAMATERGIC RECEPTOR SUBTYPE 2 AND THEIR USE” (JANSSEN PHARMACEUTICA NV, priority 2014, published 2025).
Several values for one entry are separate records, joined by “and”; a condition that tells them apart may be missing. Identical values can stand only once. Like-named read-outs stand apart in the source and are kept apart here.

Tests used:
corneal kindled seizures = experiment: Mouse corneal kindling model; format: in vivo, mice; settings: for Mean Seizure Score: Racine 0 to 5
Experimental: After the mice reached a stable kindled state, the test compound or vehicle was administered and, at the previously determined TPE, each animal was given the electrical stimulus indicated above. […] One dose of LEV and two doses of Co.

[1] = system: 6 Hz (32 mA) psychomotor seizures; experiment: 6 Hz psychomotor seizure test, 32 mA (incl. TPE determination); format: in vivo, mice; settings: for ED50: Mus musculus, read-out: ED50 (95% CI) 32 mA
Summary of the method: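 Mice dosed s.c. into a loose skin fold (one compound p.o.) at 0.01 mL/g body weight. Focal seizures induced by corneal stimulation (6 Hz, 0.2 msec rectangular pulse, 3 sec) at 32 mA; absence of stun, forelimb clonus, vibrissae twitching and Straub-tail scored as protection. TPE determined in this assay; ED50 from evenly spaced doses.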

[2] = system: pentylenetetrazol seizures; settings: in vivo; cited from earlier work
MES seizures = settings: in vivo; cited from earlier work
human mGlu2 receptor = target: T1, human mGlu2 receptor (Homo sapiens, UniProt Q14416); experiment: [35S]GTPγS binding assay, mGluR2 PAM; format: biochemical; settings: for Emax: maximal % effect relative to control glutamate response, EC20 glutamate, read-out: GTPγS-hmGluR2 PAM Emax
T1 construct: expressed in transfected cells; host or cells: CHO cells
T1 sequence (Q14416 19-872): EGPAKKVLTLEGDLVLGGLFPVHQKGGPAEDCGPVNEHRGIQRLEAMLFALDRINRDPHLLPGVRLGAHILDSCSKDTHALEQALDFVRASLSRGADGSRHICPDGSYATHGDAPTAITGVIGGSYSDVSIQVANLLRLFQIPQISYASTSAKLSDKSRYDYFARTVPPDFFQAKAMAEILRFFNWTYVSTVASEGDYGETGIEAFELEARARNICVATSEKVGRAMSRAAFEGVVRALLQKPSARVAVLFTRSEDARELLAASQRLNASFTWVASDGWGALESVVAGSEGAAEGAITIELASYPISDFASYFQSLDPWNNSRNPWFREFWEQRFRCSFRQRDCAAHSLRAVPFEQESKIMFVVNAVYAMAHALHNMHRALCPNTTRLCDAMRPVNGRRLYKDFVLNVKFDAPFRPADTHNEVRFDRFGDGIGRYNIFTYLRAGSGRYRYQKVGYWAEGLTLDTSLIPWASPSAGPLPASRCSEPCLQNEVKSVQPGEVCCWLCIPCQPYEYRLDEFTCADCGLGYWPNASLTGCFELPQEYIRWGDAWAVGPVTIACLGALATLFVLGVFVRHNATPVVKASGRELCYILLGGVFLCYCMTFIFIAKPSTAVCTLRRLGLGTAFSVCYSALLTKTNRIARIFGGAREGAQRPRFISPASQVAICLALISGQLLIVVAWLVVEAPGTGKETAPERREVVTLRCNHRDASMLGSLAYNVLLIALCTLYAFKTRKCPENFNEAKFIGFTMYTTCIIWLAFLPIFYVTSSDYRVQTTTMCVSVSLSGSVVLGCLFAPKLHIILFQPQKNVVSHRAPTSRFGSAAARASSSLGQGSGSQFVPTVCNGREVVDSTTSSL

For `Fc1ccc(N2CCN(Cc3ccn4c(CC5CC5)nnc4c3C(F)(F)F)CC2)c(F)c1` [Co. No. 1], the “Seizure score (dose) Corneal kindling / Mean Seizure Score” value (corneal kindled seizures; 20 mg/kg s.c., Racine score 0-5) was 3.7, the “# protected/# tested” value (corneal kindled seizures; Co. No. 1 20 mg/kg) was 5/16 and the “% Protected” value (corneal kindled seizures; Co. No. 1 20 mg/kg) was 31%. The “# protected/# tested” value (corneal kindled seizures; Co. No. 1 30 mg/kg) was 3/12, the “% Protected” value (corneal kindled seizures; Co. No. 1 30 mg/kg) was 25% and the “Mean Seizure Score” value (corneal kindled seizures; Co. No. 1 30 mg/kg) was 4.0. For the same compound, the “# protected/# tested” value ([1]; 0.5 mg/kg s.c., 0.5 h) was 1/8, the “# protected/# tested” value ([1]; 2.5 mg/kg s.c., 0.25 h) was 1/8 and the “# protected/# tested” value ([1]; 2.5 mg/kg s.c., 0.5 h) was 5/8 and 7/16. The “# protected/# tested” value ([1]; 5 mg/kg s.c., 0.25 h) was 8/12, the “# protected/# tested” value ([1]; 5 mg/kg s.c., 0.5 h) was 8/12 and the “# protected/# tested” value ([1]; 10 mg/kg s.c., 0.25 h) was 4/4. The “# protected/# tested” value ([1]; 10 mg/kg s.c., 0.5 h) was 4/4 and 7/8, the “# protected/# tested” value ([1]; 10 mg/kg s.c., 1 h) was 3/4 and the “# protected/# tested” value ([1]; 10 mg/kg s.c., 2 h) was 0/4. For the same compound, the “# protected/# tested” value ([1]; 10 mg/kg s.c., 4 h) was 0/4, the “# protected/# tested” value ([1]; 20 mg/kg s.c., 0.5 h) was 8/8 and the ED50 ([1]; sc, at TPE) was 2.8 mg/kg. The “ED50 (95% CI) 32 mA” value ([1]; s.c., at TPE) was “ED50 (95% CI): 2.8 mg/kg (1.3 to 4.3)”.
In the case of `CC[C@@H](C(N)=O)N1CCCC1=O` [LEV, (S)-2-(2-oxopyrrolidin-1-yl) butanamide, reference compound], the “activity in pentylenetetrazol seizure test” value [2] is given as “no activity”, the “# protected/# tested” value (corneal kindled seizures; LEV 3 mg/kg) is given as 5/13 and the “% Protected” value (corneal kindled seizures; LEV 3 mg/kg) is given as 38%. The “Mean Seizure Score” value (corneal kindled seizures; LEV 3 mg/kg) was 3.3 and the “activity in maximal electroshock (MES) seizure test” value (MES seizures) was “no activity”.
In the case of `CCCCn1ccc(N2CCC(c3ccc(F)cc3F)CC2)c(Cl)c1=O` [Co. No. 25-a], the EC50 (human mGlu2 receptor; in presence of EC20 glutamate, read-out: GTPγS-hmGluR2 PAM pEC50 (converted)) is reported as 85.1 nM, the Emax (human mGlu2 receptor) is reported as 261% and the “# protected/# tested” value ([1]; 1 mg/kg s.c., 0.25 h) is reported as 1/8. For the same compound, the “# protected/# tested” value ([1]; 5 mg/kg s.c., 0.25 h) was 4/8, the “# protected/# tested” value ([1]; 10 mg/kg s.c., 0.25 h) was 2/4 and 4/8 and the “# protected/# tested” value ([1]; 10 mg/kg s.c., 0.5 h) was 1/4. The “# protected/# tested” value ([1]; 10 mg/kg s.c., 1 h) was 1/4, the “# protected/# tested” value ([1]; 10 mg/kg s.c., 2 h) was 0/4 and the “# protected/# tested” value ([1]; 10 mg/kg s.c., 4 h) was 0/4. For the same compound, the “# protected/# tested” value ([1]; 15 mg/kg s.c., 0.25 h) was 3/8, the “# protected/# tested” value ([1]; 20 mg/kg s.c., 0.25 h) was 4/4 and 8/8 and the “# protected/# tested” value ([1]; 20 mg/kg s.c., 0.5 h) was 3/4. The “# protected/# tested” value ([1]; 20 mg/kg s.c., 1 h) was 4/4, the “# protected/# tested” value ([1]; 20 mg/kg s.c., 2 h) was 1/4 and the “# protected/# tested” value ([1]; 20 mg/kg s.c., 4 h) was 1/4. For the same compound, the ED50 ([1]; sc, at TPE) was 7.7 mg/kg and the “ED50 (95% CI) 32 mA” value ([1]; s.c., at TPE) was “ED50 (95% CI): 7.7 mg/kg (2.3 to 18.4)”.
In the case of `C[C@H](Oc1ccc(F)cc1F)c1ccn2c(CC3CC3)nnc2c1C(F)(F)F` [Co. No. 6-b, 3-(Cyclopropylmethyl)-7-[(1S)-1-(2,4-difluorophenoxy)ethyl]-8-(trifluoromethyl)[1,2,4]triazolo[4,3-a]pyridine], the Emax (human mGlu2 receptor) is reported as 256%, the “# protected/# tested” value ([1]; 2.5 mg/kg p.o., 0.5 h) is reported as 1/8 and the “# protected/# tested” value ([1]; 5 mg/kg p.o., 0.5 h) is reported as 2/8. For the same compound, the “# protected/# tested” value ([1]; 10 mg/kg p.o., 0.25 h) was 1/4, the “# protected/# tested” value ([1]; 10 mg/kg p.o., 0.5 h) was 3/4 and 6/8 and the “# protected/# tested” value ([1]; 10 mg/kg p.o., 1 h) was 0/4. The “# protected/# tested” value ([1]; 10 mg/kg p.o., 2 h) was 1/4, the “# protected/# tested” value ([1]; 10 mg/kg p.o., 4 h) was 0/4 and the “# protected/# tested” value ([1]; 20 mg/kg p.o., 0.25 h) was 4/4. The “# protected/# tested” value ([1]; 20 mg/kg p.o., 0.5 h) was 3/4 and 7/8, the “# protected/# tested” value ([1]; 20 mg/kg p.o., 1 h) was 4/4 and the “# protected/# tested” value ([1]; 20 mg/kg p.o., 2 h) was 0/4. For the same compound, the “# protected/# tested” value ([1]; 20 mg/kg p.o., 4 h) was 1/4, the ED50 ([1]; po, 0.5 h, p.o., 0.5 h TPE) was 7.2 mg/kg and the “ED50 (95% CI) 32 mA” value ([1]; p.o., 0.5 h TPE) was “ED50 (95% CI): 7.2 mg/kg (4.2 to 11.8)”.
